Experimental data published in ChEMBL document CHEMBL1201862, “PubChem BioAssay data set” (2004).
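Grown in 96-well plates, cells were treated for 48 hours with each compound at five concentrations. Insufficient inhibition: endpoint recorded as highest concentration tested. GI50 = concentration required for 50% inhibition of growth.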 Activity calls are given as the source filed them. No stated cut-off is given here; in the data, active = GI50 up to about 1.1 µM and inactive = higher.

Tests used:
Experiment in all cases: DTP human tumour cell line panel, 48 h
[1] = system: HCT-116
[2] = system: SR
[3] = system: RXF 631
[4] = system: ACHN
[5] = system: HL-60
[6] = system: A549
[7] = system: IGROV-1
[8] = system: SK-OV-3
[9] = system: RXF 393
[10] = system: UACC-62
[11] = system: HOP-92
[12] = system: TK-10
[13] = system: SK-MEL-28
[14] = system: NCI-H23
[15] = system: U-251
[16] = system: SF-268
[17] = system: EKVX
[18] = system: SNB-19
[19] = system: SNB-78
[20] = system: DMS-114
[21] = system: UO-31
[22] = system: NCI-H522
[23] = system: OVCAR-5
[24] = system: CCRF-CEM
[25] = system: MOLT-4
[26] = system: KM12
[27] = system: OVCAR-8
[28] = system: DMS-273
[29] = system: SW-620
[30] = system: COLO 205
[31] = system: M14
[32] = system: NCI-H226
[33] = system: XF498
[34] = system: SK-MEL-5
[35] = system: 786-0
[36] = system: DLD-1
[37] = system: KM-20L2
[38] = system: SF-539
[39] = system: HOP-18
[40] = system: LXFL 529
[41] = system: Malme-3M
[42] = system: NCI-H460
[43] = system: OVCAR-3
[44] = system: SK-MEL-2
[45] = system: M19-MEL
[46] = system: UACC-257
[47] = system: OVCAR-4
[48] = system: SN12C
[49] = system: HCT-15
[50] = system: HT-29
[51] = system: HCC 2998
[52] = system: SF-295
[53] = system: SNB-75
[54] = system: RPMI-8226
[55] = system: A498
[56] = system: LOX IMVI
[57] = system: K562
[58] = system: HOP-62
[59] = system: CAKI-1

Measured: GI50

C=CC1C2=C(C(=O)NCC2)C2OC(O)C3=C(CCNC3=O)C2C1C (stereo unspecified)
inactive: [1] > 100 µM | [2] > 100 µM | [3] > 100 µM | [4] > 100 µM | [5] > 100 µM | [6] > 100 µM | [7] > 100 µM | [8] > 100 µM | [9] > 100 µM | [10] > 100 µM | [11] > 100 µM | [12] > 100 µM | [13] > 100 µM | [14] > 100 µM | [15] > 100 µM | [16] > 100 µM | [17] > 100 µM | [18] > 100 µM | [19] > 100 µM | [20] > 100 µM | [21] > 100 µM | [22] > 100 µM | [23] > 100 µM | [24] > 100 µM | [25] > 100 µM | [26] > 100 µM

C=C1CCC2[C@@H](CCC3[C@]2(C)CCC[C@]3(C)C(=O)OC)C1CC=O (stereo partly specified)
19.9 µM: [49]
inactive: [1] 15.2 µM | [27] 19.4 µM | [28] 20.9 µM | [4] 15.9 µM | [29] 19.1 µM | [5] 15.6 µM | [30] 18.5 µM | [31] 16.5 µM | [7] 20.2 µM | [32] 17.9 µM | [33] 14.1 µM | [10] 15.2 µM | [34] 19.6 µM | [11] 14.6 µM | [13] 16.3 µM | [14] 18.6 µM | [35] 18.1 µM | [36] 21.6 µM | [16] 18.2 µM | [37] 18.8 µM | [17] 20.1 µM | [38] 16.9 µM | [19] 17.6 µM | [39] 15.6 µM | [40] 16 µM | [41] 19.1 µM | [42] 15.3 µM | [43] 14.2 µM | [20] 17.5 µM | [44] 18.9 µM | [45] 18.2 µM | [46] 16.2 µM | [47] 17.4 µM | [48] 18.2 µM | [24] 14 µM | [50] 16.6 µM

C=C1CCC2[C@@H](CCC3[C@]2(C)CCC[C@]3(C)C(=O)OC)[C@@H]1CC=O (stereo partly specified)
29.5 µM: [49]
inactive: [1] 16.7 µM | [27] 23.6 µM | [28] 22.4 µM | [4] 27.2 µM | [29] 17.6 µM | [5] 23.5 µM | [30] 36.9 µM | [31] 19.4 µM | [7] 35.8 µM | [32] 27.7 µM | [33] 19.9 µM | [10] 24.6 µM | [34] 17 µM | [51] 61.7 µM | [11] 20.2 µM | [13] 27.7 µM | [14] 25.8 µM | [35] 36.1 µM | [36] 33.6 µM | [16] 34.6 µM | [37] 27 µM | [17] 35.1 µM | [38] 17.9 µM | [19] 34.4 µM | [39] 24.8 µM | [40] 31.9 µM | [41] 28.8 µM | [42] 20 µM | [43] 20.5 µM | [20] 22 µM | [44] 31.6 µM | [45] 22.4 µM | [46] 26.5 µM | [47] 27.6 µM | [48] 30.3 µM | [24] 22.4 µM | [50] 28.1 µM

CC1(O)C=CC2CCC1C2O (stereo unspecified)
> 100 µM: [49]
inactive: [1] 19.7 µM | [27] > 100 µM | [52] > 100 µM | [2] 23.7 µM | [28] 55.6 µM | [4] > 100 µM | [5] > 100 µM | [6] 68.9 µM | [30] 30.3 µM | [53] > 100 µM | [31] > 100 µM | [7] > 100 µM | [32] > 100 µM | [8] > 100 µM | [9] 87.5 µM | [33] > 100 µM | [10] > 100 µM | [34] > 100 µM | [12] > 100 µM | [13] > 100 µM | [14] > 100 µM | [35] 25.4 µM | [36] 58.7 µM | [54] 28.2 µM | [15] > 100 µM | [55] > 100 µM | [56] 21.5 µM | [16] 29.3 µM | [57] > 100 µM | [58] > 100 µM | [37] 50.9 µM | [17] > 100 µM | [38] > 100 µM | [18] > 100 µM | [19] > 100 µM | [39] > 100 µM | [40] 78.9 µM | [41] > 100 µM | [42] 46.5 µM | [43] > 100 µM | [20] 17.7 µM | [44] > 100 µM | [45] > 100 µM | [46] > 100 µM | [59] > 100 µM | [47] > 100 µM | [21] > 100 µM | [48] > 100 µM | [22] > 100 µM | [23] > 100 µM | [24] > 100 µM | [25] > 100 µM | [26] > 100 µM | [50] > 100 µM
